In publication PMC2746312, “A High-Throughput Approach for Identification of Novel General Anesthetics” (PLoS ONE, 2009):
“Also recorded” adds a separate entry of the source. Structures can show the parent of a compound that is named as a salt. Where two headings read alike, the source gives them in different places.

Key:
[1] = biological target: T1, apoferritin (Equus caballus, UniProt P02791); test: Isothermal titration calorimetry (ITC) of compound into apoferritin; conditions: for ITC evidence of binding (in words): enthalpogram
T1 sequence (P02791 2-175 limits assumed): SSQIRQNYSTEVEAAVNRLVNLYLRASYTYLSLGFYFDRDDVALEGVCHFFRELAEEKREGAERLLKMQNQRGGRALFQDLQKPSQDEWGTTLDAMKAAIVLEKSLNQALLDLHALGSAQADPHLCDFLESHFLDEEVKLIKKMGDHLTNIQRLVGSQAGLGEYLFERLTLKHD

[2] = biological target: T2, horse spleen apoferritin (Equus caballus, UniProt P02791); test: 1-AMA/apoferritin fluorescence competition assay, qHTS in 1,536-well format; format: binding; conditions: for inhibition at 77 µM: read-out: inhibition at maximal concentrations in qHTS
T2 sequence (P02791 2-175 limits assumed): T1 sequence (P02791 2-175 limits assumed)
Procedure: The previously-reported apoferritin-1-AMA binding assay was miniaturized to 3 µL in 1,536-well plates.
Throughout the screen, reagent bottles and all liquid lines were made light-tight to minimize reagent degradation. Activity was computed as the normalized fluorescence response relative to free 1-AMA and 1-AMA/apoferritin complex values. Concentration–effect relationships were derived by using publicly-available curve-fitting algorithms developed in-house (http://ncgc.nih.gov/pub/openhts/). A four parameter Hill equation was fitted to the concentration-response data by minimizing the residual error between the modeled and observed responses.

[3] = computed directly from 1-AMA inhibition data, infinite value fixed to -70%, seven concentrations 77 µM to 25 nM, read-out: qHTS IC50

| Structure (SMILES) | Kd [1] | IC50 [2, 3] | other results |
| --- | --- | --- | --- |
| CC(N)c1cccc(Cl)c1Cl (racemic) [D-103, (±)-2,3-Dichloro-alpha-methylbenzylamine hydrochloride] | 506 µM | 94 µM | – |
| CCOC(=O)C(C)(C)Oc1ccc(Cl)cc1 [C-6643, Clofibrate] | 11.5 µM | 105 µM | – |
| O=c1oc(Cl)c(Cl)c2ccccc12 [D-7910, 3,4-Dichloroisocoumarin] | – | 129 µM | – |
| CC(C)c1cccc(C(C)C)c1O [D-126608, 2,6-diisopropylphenol (propofol)] | 5 µM | – | IC50 [2]: 67 µM; qHTS screen outcome (in words) ([2]; LOPAC1280 screen with filters): successfully identified in this screen |
| CC1(C)CCC2=C(O1)c1ccccc1C(=O)C2=O [L-2037, β-Lapachone] | – | 33 µM | – |
| c1ccc([C@H]2CN3CCSC3=N2)cc1 [L-9756, (-)-Tetramisole hydrochloride] | 233 µM | 194 µM | – |
| C#CCN(C)C(C)Cc1ccccc1 (stereo not drawn) [M-003, R-(-)-Deprenyl hydrochloride] | 74 µM | – | IC50 [2]: 100 µM |
| Cc1cccc(C#Cc2ccccc2)n1 [M-5435, 6-Methyl-2-(phenylethynyl)pyridine] | 313 µM | 152 µM | – |
| CN(N=O)c1ccc(O)c(O)c1 [M-9440, Methyl-3,4-dephostatin] | 284 µM | – | IC50 [2]: 155 µM |
| O=Nc1ccc2oc(=O)ccc2c1 [N-8403, 6-Nitroso-1,2-benopyrone] | 37.9 µM | 107 µM | – |
| C=C1C(=O)O[C@H]2[C@H]1CC/C(C)=C/CC[C@@]1(C)O[C@@H]21 [P-0667, Parthenolide] | 35.9 µM | 68 µM | – |
| COc1ccc2c(c1)/C(=C/c1cnc[nH]1)C(=O)N2 [S-1693, SU 9516] | – | 88 µM | ITC evidence of binding (in words) [1]: failed to provide convincing evidence of binding; inhibition at 77 µM [2]: ~30% |
| Oc1ccc(C2CNCc3sccc32)cc1O (stereo not drawn) [S-3066, SKF-89626 hydrobromide] | – | – | ITC evidence of binding (in words) [1]: does not; also recorded: failed to provide convincing evidence of binding; inhibition at 77 µM [2]: ~30% |
| Cc1ccc(O)c(/N=N/c2ccccc2)n1 [S-9186, SIB 1757] | – | 42 µM | – |
| CCSC(=N)Nc1ccc(C(F)(F)F)cc1 [T7188, TFPI hydrochloride] | 25.3 µM | 98 µM | – |
| N#C/C(=C\c1ccc(O)c(O)c1)C(N)=S [T-7540, Tyrphostin 47] | 189 µM | 219 µM | – |
| S=C([S-])OC1CC2CC1C1CCCC21.[K+] (stereo not drawn) [T-8543, O-Tricyclo[5.2.1.0^2,6]dec-9-yl dithiocarbonate potassium salt] | 12.3 µM | 16 µM | ITC evidence of binding (in words) [1]: clear exothermic binding behavior |
| Cc1cc(C(C)(C)C)cc(C)c1CC1=NCCN1 [X-6000, Xylometazoline hydrochloride] | 177 µM | – | IC50 [2]: 167 µM |
